Patent US20260217698A1 (BEYANG THERAPEUTICS CO., LTD., priority 2022, published 2026)

Columns and labels:
[1] = molecular target: T1, EGFR (Homo sapiens, UniProt P00533); test: Kinase inhibition, Mobility Shift Assay/IMAP, EGFR; format: biochemical
T1 construct: purchased Carna 08-115
In short: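 Substrate conversion (phosphorylated vs non-phosphorylated) read by mobility shift on Caliper EZ Reader II and converted to % inhibition relative to no-enzyme and DMSO controls. IC50 fitted from % inhibition versus log compound concentration.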

[2] = tested on: HUVEC cells; test: Inhibition of VEGF-induced HUVEC cell proliferation, CellTiter Glo; format: cell-based; details: Homo sapiens, 20 ng/ml VEGF, 72 hours
In short: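 HUVEC (4000/well) serum-starved overnight in RPMI-1640 with 5% FBS, compound added 1 h before VEGF (20 ng/ml final in controls). After 72 h at 37 °C, viable cells were quantified by CellTiter-Glo luminescence; % inhibition fitted against log concentration, DMSO+VEGF wells as high control and cell-free wells as low.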

[3] = molecular target: VEGFR2 (Homo sapiens, UniProt P35968); test: Inhibition of VEGF-induced VEGFR2 autophosphorylation (pVEGFR2) in HUVEC cells, ELISA; format: cell-based; parameters: endogenous in cells; host or cells: HUVEC; details: 50 ng/mL human VEGF, compound 1 h
Chain of VEGFR2 (P35968 20-1356): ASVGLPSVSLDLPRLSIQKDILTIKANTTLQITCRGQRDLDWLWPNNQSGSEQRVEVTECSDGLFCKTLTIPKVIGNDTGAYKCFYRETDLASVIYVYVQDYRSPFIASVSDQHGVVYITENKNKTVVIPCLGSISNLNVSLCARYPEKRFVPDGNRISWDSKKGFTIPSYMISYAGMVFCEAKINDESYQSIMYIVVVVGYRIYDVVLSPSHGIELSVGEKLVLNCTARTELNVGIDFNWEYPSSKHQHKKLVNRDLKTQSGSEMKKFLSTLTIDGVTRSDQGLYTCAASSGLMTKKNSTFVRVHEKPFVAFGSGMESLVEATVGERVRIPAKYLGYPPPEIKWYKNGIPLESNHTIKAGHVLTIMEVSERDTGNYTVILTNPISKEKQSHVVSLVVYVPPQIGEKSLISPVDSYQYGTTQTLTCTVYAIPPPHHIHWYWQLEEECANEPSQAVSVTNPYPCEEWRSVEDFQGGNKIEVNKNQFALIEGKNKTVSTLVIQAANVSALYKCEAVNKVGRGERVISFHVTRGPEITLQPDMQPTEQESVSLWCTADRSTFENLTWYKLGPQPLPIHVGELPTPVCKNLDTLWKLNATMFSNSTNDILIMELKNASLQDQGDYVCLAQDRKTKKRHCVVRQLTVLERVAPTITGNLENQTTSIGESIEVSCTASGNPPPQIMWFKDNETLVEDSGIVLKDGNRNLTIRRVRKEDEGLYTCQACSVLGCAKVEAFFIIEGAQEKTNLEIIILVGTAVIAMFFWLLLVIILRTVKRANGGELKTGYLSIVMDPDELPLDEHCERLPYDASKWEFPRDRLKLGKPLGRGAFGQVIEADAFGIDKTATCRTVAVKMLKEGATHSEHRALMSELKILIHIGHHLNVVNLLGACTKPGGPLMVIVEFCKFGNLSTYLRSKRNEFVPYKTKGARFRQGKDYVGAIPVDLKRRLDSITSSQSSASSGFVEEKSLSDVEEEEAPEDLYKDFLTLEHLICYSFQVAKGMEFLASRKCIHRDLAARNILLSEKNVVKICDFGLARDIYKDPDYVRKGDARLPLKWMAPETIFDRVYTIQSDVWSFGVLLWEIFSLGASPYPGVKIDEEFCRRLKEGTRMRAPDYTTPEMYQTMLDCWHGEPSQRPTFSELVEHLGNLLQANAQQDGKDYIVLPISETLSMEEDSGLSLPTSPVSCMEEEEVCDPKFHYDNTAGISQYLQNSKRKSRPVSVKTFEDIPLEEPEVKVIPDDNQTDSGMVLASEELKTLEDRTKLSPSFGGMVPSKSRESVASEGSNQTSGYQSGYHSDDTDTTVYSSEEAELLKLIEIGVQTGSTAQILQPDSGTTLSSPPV
Excerpt: Vascular endothelial growth factor receptor 2 (VEGFR2) is a primary receptor for VEGF-induced endothelial cell signaling. After ligand binding, VEGFR2 is autophosphorylated and activated. The main function of signaling from VEGFR2 is to induce vascularization during development and after tissue injury, and to bypass blocked blood vessels. Pathologically, VEGF and VEGFR2 are involved in tumor angiogenesis and vascular leakage. They are considered to be main participants in many different cancers and ocular diseases that accompany pathological neovascularization. This assay measured the ability of the compounds to inhibit VEGF-induced VEGFR2 autophosphorylation (pVEGFR2) in HUVEC cells by using ELISA.
Culture cells in a cell culture flask to reach a fusion degree of 60%-80% before cell inoculation. Dilute the cell suspension to […] with a pre-warmed complete medium. Add 80 μL of the cell suspension to all wells of a 96-well cell plate (Corning-3599); and incubate the plate overnight at 37° C. in the presence of 5% CO2. Dissolve the compound powder to 10 mM with DMSO and store it in a nitrogen cabinet. Compound dilution plate: Add a reference compound Ponatinib or a compound to be tested to a 96 V-well plate (Axygen-WIPP 2280) at concentrations achieved as follows: performing 3-fold gradient dilution starting from 5 mM (5 μL of 10 mM compound solution plus 5 μL of DMSO) for a total of 8 concentration points. […] Transfer 20 μL of the diluted compound from the intermediate plate to a cell plate. Then, incubate the cell plate for 1 h at 37° C. in the presence of 5% CO2. After the compound was treated for 1 h, add 25 μL of 250 ng/ml human VEGF at a final concentration of 50 ng/mL to a 96-well plate; and incubate the plate for 5 min at 37° C. in the presence of 5% CO2, centrifuge the plate for 10 min at 3,000 rpm, remove the medium and wash the cells once with 300 μL of pre-chilled DPBS per well. Then, centrifuge the plate for 10 min at 4,000 rpm, remove DPBS, and add 110 μL of pre-chilled 1× cell lysis buffer per well to the 96-well plate. Shake the plate for 40 min at 4° C. Then, freeze the plate in a refrigerator at −80° C. On the next day, remove the plate from the refrigerator at −80° C., thaw the plate, centrifuge the plate for 10 min at 3500 rpm, and add 100 μL of the supernatant per well to an ELISA plate. Seal the plate and incubate it for 2 h at 37° C. Wash the wells 4 times with 1× wash buffer. Add 100 μL of recombinant detection antibody per well. Seal the plate, incubate the plate for 1 h at 37° C., and repeat the step of plate washing. Add 100 μL of secondary antibody per well. Seal the plate, incubate the plate for 30 min at 37° C., and repeat the step of plate washing. Add 100 μL of TMB (protected from light) per well. Seal the plate, incubate the plate for 30 min at 37° C., and add 100 μL of the stop solution per well. Gently shake for 30 sec, measure the absorbance with a SpectraMax® 340 PC 384 Absorbance Microplate Reader within 30 min, and read an optical density value at 450 nm. Conduct data analysis using XL Fit software:
Conduct curve fitting using the 4 Parameter Logistic Model or Sigmoidal Dose-Response Model to obtain IC50 values.
X indicates the log value of compound concentration, Y indicates the inhibition rate (% inhibition), Top indicates the readout of the negative control wells, and Bottom indicates the readout of the positive control well.

T1 sequence (P00533 669-1210 limits assumed): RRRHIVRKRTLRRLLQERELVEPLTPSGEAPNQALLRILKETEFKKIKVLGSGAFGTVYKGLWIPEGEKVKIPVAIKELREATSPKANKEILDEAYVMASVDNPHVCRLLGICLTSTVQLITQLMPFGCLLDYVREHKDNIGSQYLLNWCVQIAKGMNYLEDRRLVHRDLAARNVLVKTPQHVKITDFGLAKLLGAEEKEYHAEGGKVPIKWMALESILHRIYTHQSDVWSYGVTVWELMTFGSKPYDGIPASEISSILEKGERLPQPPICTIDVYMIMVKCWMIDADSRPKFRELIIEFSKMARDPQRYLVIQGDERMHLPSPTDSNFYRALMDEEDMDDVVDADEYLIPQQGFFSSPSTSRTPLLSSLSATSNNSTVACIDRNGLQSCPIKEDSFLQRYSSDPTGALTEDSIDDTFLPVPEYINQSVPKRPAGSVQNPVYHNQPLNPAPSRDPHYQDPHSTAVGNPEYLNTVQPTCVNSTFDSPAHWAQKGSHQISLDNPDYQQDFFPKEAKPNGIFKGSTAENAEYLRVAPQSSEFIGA

| Compound | IC50 [1] [nM] | IC50 [2] [nM] | IC50 [3] [nM] |
| --- | --- | --- | --- |
| NC(=O)c1c(OCc2cc(C(=O)NC3CC3)ccc2F)nsc1NC(=O)NCCCCN1CCCC1 [Compound T087, 3-[[5-(cyclopropylcarbamoyl)-2-fluoro-phenyl]methoxy]-5-(4-pyrrolidin-1-ylbutylcarbamoylamino)isothiazole-4-carboxamide] | 15200 | 45.4 | 30 |
| NC(=O)c1c(OCc2c(F)ccc(C(=O)NC3CC3)c2F)nsc1NC(=O)NCCCCN1CCCC1 [Compound T124, 3-[[3-(cyclopropylcarbamoyl)-2,6-difluoro-phenyl]methoxy]-5-(4-pyrrolidin-1-ylbutylcarbamoylamino)isothiazole-4-carboxamide] | > 60000 | 43.6 | 16.2 |
| CN1CCN(CCCNC(=O)Nc2snc(OCc3cc(C(=O)NC4CC4)ccc3F)c2C(N)=O)CC1 [Compound T118, 3-[[5-(cyclopropylcarbamoyl)-2-fluoro-phenyl]methoxy]-5-[3-(4-methylpiperazin-1-yl)propylcarbamoylamino]isothiazole-4-carboxamide] | 8960 | 39 | 48.2 |
| NC(=O)c1c(OCc2cc3c(cc2F)CCO3)nsc1NC(=O)NCCCCN1CC[C@@H](O)C1 [Compound T091, 3-[(5-fluoro-2,3-dihydrobenzofuran-6-yl)methoxy]-5-[4-[(3R)-3-hydroxypyrrolidin-1-yl]butylcarbamoylamino] isothiazole-4-carboxamide] | 9890 | 36 | 87 |
| CN1CCN(CCCNC(=O)Nc2snc(OCc3cc4c(cc3F)CCO4)c2C(N)=O)CC1 [Compound T101, 3-[(5-fluoro-2,3-dihydrobenzofuran-6-yl)methoxy]-5-[3-(4-methylpiperazin-1-yl)propylcarbamoylamino] isothiazole-4-carboxamide] | 9160 | 48.6 | 103 |
| NC(=O)c1c(OCc2cc(C(=O)NC3CC3)ccc2Cl)nsc1NC(=O)NCCCCN1CCCC1 [Compound T123, 3-[[2-chloro-5-(cyclopropylcarbamoyl)phenyl]methoxy]-5-(4-pyrrolidin-1-ylbutylcarbamoylamino)isothiazole-4-carboxamide] | 26900 | 17.1 | 0.78 |
| NC(=O)c1c(OCc2cc(C(=O)NC3CC3)ccc2F)nsc1NC(=O)NCCCN1CC[C@H](F)C1 [Compound T116, 3-[[5-(cyclopropylcarbamoyl)-2-fluoro-phenyl]methoxy]-5-[3-[(3S)-3-fluoropyrrolidin-1-yl]propylcarbamoylamino]isothiazole-4-carboxamide] | 18000 | 21 | 61 |
